Laboratory results: patent US20260262643A1, “HERBICIDAL BENZOXAZINES” (FMC CORPORATION, priority 2022, published 2026)

Experiments:
kochia [1] = experiment: Test C preemergence; assay type: in vivo, Bassia scoparia; details: 0 to 100 scale (0 no effect, 100 complete control); for Plant response rating, Kochia: Preemergence, 500 g ai/ha, visual rating after 10 days; for Kochia plant response rating: Test C, preemergence, 125 g ai/ha
In short: (§1)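 Test material, in non-phytotoxic solvent with surfactant, was sprayed on the soil directly after seeding (preemergence) or on young plants of 2–10 cm with one to two leaves (postemergence). Greenhouse, 10 days; 0–100 visual control scale.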

kochia [2] = experiment: Test C postemergence; assay type: in vivo, Bassia scoparia; details: 10 days
In short: as §1

ducksalad = experiment: Test D flooded paddy test; assay type: in vivo, Heteranthera limosa; details: 250 g ai/ha, applied to paddy water, visual rating after 13 to 14 days, scale 0 to 100 (0 no effect, 100 complete control)
In short: (§2)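 Post-flood water application at the 2-leaf stage; 3 cm flood depth kept constant; visual control rating 0–100 after 13–14 days greenhouse growth.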

barnyardgrass [3] = experiment: Test C preemergence; assay type: in vivo, Echinochloa crusgalli; details: 0 to 100 scale (0 no effect, 100 complete control); for Plant response rating, Barnyardgrass: Preemergence, 500 g ai/ha, visual rating after 10 days; for Barnyardgrass plant response rating: Test C, preemergence, 125 g ai/ha
In short: as §1

barnyardgrass [4] = experiment: Test D flooded paddy test; assay type: in vivo, Echinochloa crus-galli; details: 250 g ai/ha, applied to paddy water, visual rating after 13 to 14 days, scale 0 to 100 (0 no effect, 100 complete control)
In short: as §2

pigweed, palmer [5] = experiment: Test C postemergence; assay type: in vivo, Amaranthus palmeri; details: 10 days
In short: as §1

blackgrass [6] = experiment: Test C preemergence; assay type: in vivo, Alopecurus myosuroides; details: 0 to 100 scale (0 no effect, 100 complete control); for Plant response rating, Blackgrass: Preemergence, 500 g ai/ha, visual rating after 10 days; for Blackgrass plant response rating: Test C, preemergence, 125 g ai/ha
In short: as §1

ragweed [7] = experiment: Test C postemergence; assay type: in vivo, Ambrosia artemisiifolia; details: 10 days
In short: as §1

barnyardgrass [8] = experiment: Test C postemergence; assay type: in vivo, Echinochloa crusgalli; details: 10 days
In short: as §1

oat, wild [9] = experiment: Test C postemergence; assay type: in vivo, Avena fatua; details: 10 days
In short: as §1

corn [10] = experiment: Test C preemergence; assay type: in vivo, Zea mays; details: 0 to 100 scale (0 no effect, 100 complete control); for Plant response rating, Corn: Preemergence, 500 g ai/ha, visual rating after 10 days; for Corn plant response rating: Test C, preemergence, 125 g ai/ha
In short: as §1

soybean [11] = experiment: Test C preemergence; assay type: in vivo, Glycine max; details: 0 to 100 scale (0 no effect, 100 complete control); for Plant response rating, Soybean: Preemergence, 500 g ai/ha, visual rating after 10 days; for Soybean plant response rating: Test C, preemergence, 125 g ai/ha
In short: as §1

horseweed = experiment: Test C postemergence; assay type: in vivo, Erigeron canadensis; details: 10 days
In short: as §1

ragweed [12] = experiment: Test C preemergence; assay type: in vivo, Ambrosia artemisiifolia; details: 0 to 100 scale (0 no effect, 100 complete control); for Plant response rating, Ragweed: Preemergence, 500 g ai/ha, visual rating after 10 days; for Ragweed plant response rating: Test C, preemergence, 125 g ai/ha
In short: as §1

green foxtail [13] = experiment: Test C preemergence; assay type: in vivo, Setaria viridis; details: 0 to 100 scale (0 no effect, 100 complete control); for Plant response rating, Foxtail, Green: Preemergence, 500 g ai/ha, visual rating after 10 days; for Foxtail, Green plant response rating: Test C, preemergence, 125 g ai/ha
In short: as §1

pigweed, palmer [14] = experiment: Test C preemergence; assay type: in vivo, Amaranthus palmeri; details: 0 to 100 scale (0 no effect, 100 complete control); for Plant response rating, Pigweed, Palmer: Preemergence, 500 g ai/ha, visual rating after 10 days; for Pigweed, Palmer plant response rating: Test C, preemergence, 125 g ai/ha
In short: as §1

corn [15] = experiment: Test C postemergence; assay type: in vivo, Zea mays; details: 10 days
In short: as §1

ryegrass, Italian [16] = experiment: Test C postemergence; assay type: in vivo, Lolium multiflorum; details: 10 days
In short: as §1

oat, wild [17] = experiment: Test C preemergence; assay type: in vivo, Avena fatua; details: 0 to 100 scale (0 no effect, 100 complete control); for Plant response rating, Oat, Wild: Preemergence, 500 g ai/ha, visual rating after 10 days; for Oat, Wild plant response rating: Test C, preemergence, 125 g ai/ha
In short: as §1

wheat [18] = experiment: Test C postemergence; assay type: in vivo, Triticum aestivum; details: 10 days
In short: as §1

soybean [19] = experiment: Test C postemergence; assay type: in vivo, Glycine max; details: 10 days
In short: as §1

sedge, umbrella = experiment: Test D flooded paddy test; assay type: in vivo, Cyperus difformis; details: 250 g ai/ha, applied to paddy water, visual rating after 13 to 14 days, scale 0 to 100 (0 no effect, 100 complete control)
In short: as §2

wheat [20] = experiment: Test C preemergence; assay type: in vivo, Triticum aestivum; details: 0 to 100 scale (0 no effect, 100 complete control); for Plant response rating, Wheat: Preemergence, 500 g ai/ha, visual rating after 10 days; for Wheat plant response rating: Test C, preemergence, 125 g ai/ha
In short: as §1

rice = experiment: Test D flooded paddy test; assay type: in vivo, Oryza sativa; details: 250 g ai/ha, applied to paddy water, visual rating after 13 to 14 days, scale 0 to 100 (0 no effect, 100 complete control)
In short: as §2

blackgrass [21] = experiment: Test C postemergence; assay type: in vivo, Alopecurus myosuroides; details: 10 days
In short: as §1

green foxtail [22] = experiment: Test C postemergence; assay type: in vivo, Setaria viridis; details: 10 days
In short: as §1

ryegrass, Italian [23] = experiment: Test C preemergence; assay type: in vivo, Lolium multiflorum; details: 0 to 100 scale (0 no effect, 100 complete control); for Plant response rating, Ryegrass, Italian: Preemergence, 500 g ai/ha, visual rating after 10 days; for Ryegrass, Italian plant response rating: Test C, preemergence, 125 g ai/ha
In short: as §1

[24] = 125 g ai/ha, postemergence, 0 to 100 scale, 0 no effect, 100 complete control
[25] = Postemergence, 500 g ai/ha, visual 0 to 100 scale (0 no effect, 100 complete control)

CC(C)c1ncn(-c2cc3c(c(C(=O)N4C[C@H](C)Oc5c(Cl)cccc54)c2)OCCO3)n1 [Compound 217, [(2S)-8-chloro-2-methyl-2,3-dihydro-1,4-benzoxazin-4-yl]-[7-(3-isopropyl-1,2,4-triazol-1-yl)-2,3-dihydro-1,4-benzodioxin-5-yl]methanone]
Plant response rating, Kochia (kochia [1]): 100 | Kochia plant response rating (kochia [1]): 80 | Plant response rating, Kochia (kochia [2]; [24]): 80 | Plant response rating, Kochia (kochia [2]; [25]): 90 | Plant response rating, Ducksalad (Flood) (ducksalad): 85 | Plant response rating, Barnyardgrass (barnyardgrass [3]): 100 | Barnyardgrass plant response rating (barnyardgrass [3]): 90 | Plant response rating, Barnyardgrass (Flood) (barnyardgrass [4]): 50 | Plant response rating, Pigweed, Palmer (pigweed, palmer [5]; [24]): 100 | Plant response rating, Pigweed, Palmer (pigweed, palmer [5]; [25]): 100 | Plant response rating, Blackgrass (blackgrass [6]): 90 | Blackgrass plant response rating (blackgrass [6]): 60 | Plant response rating, Ragweed (ragweed [7]; [24]): 90 | Plant response rating, Ragweed (ragweed [7]; [25]): 100 | Plant response rating, Barnyardgrass (barnyardgrass [8]; [24]): 40 | Plant response rating, Barnyardgrass (barnyardgrass [8]; [25]): 80 | Plant response rating, Oat, Wild (oat, wild [9]; [24]): 20 | Plant response rating, Oat, Wild (oat, wild [9]; [25]): 40 | Plant response rating, Corn (corn [10]): 40 | Corn plant response rating (corn [10]): 30 | Plant response rating, Soybean (soybean [11]): 100 | Soybean plant response rating (soybean [11]): 70 | Plant response rating, Horseweed (horseweed; [24]): 80 | Plant response rating, Horseweed (horseweed; [25]): 100 | Plant response rating, Ragweed (ragweed [12]): 100 | Ragweed plant response rating (ragweed [12]): 70 | Plant response rating, Foxtail, Green (green foxtail [13]): 100 | Foxtail, Green plant response rating (green foxtail [13]): 100 | Plant response rating, Pigweed, Palmer (pigweed, palmer [14]): 100 | Pigweed, Palmer plant response rating (pigweed, palmer [14]): 100 | Corn plant response rating (crop injury, 0 = no effect, 100 = complete kill) at 125 g/ha (corn [15]; Zea mays, post-emergence, 240 h, 125 g ai/ha, postemergence, 0 to 100 scale (0 no effect, 100 complete control)): 70% | Corn plant response rating (crop injury, 0 = no effect, 100 = complete kill) at 500 g/ha (corn [15]; Zea mays, post-emergence, 240 h, Postemergence, 500 g ai/ha, visual 0 to 100 scale (0 no effect, 100 complete control)): 70% | Plant response rating, Ryegrass, Italian (ryegrass, Italian [16]; [24]): 70 | Plant response rating, Ryegrass, Italian (ryegrass, Italian [16]; [25]): 90 | Plant response rating, Oat, Wild (oat, wild [17]): 90 | Oat, Wild plant response rating (oat, wild [17]): 90 | Plant response rating, Wheat (wheat [18]; [24]): 50 | Plant response rating, Wheat (wheat [18]; [25]): 50 | Plant response rating, Soybean (soybean [19]; [24]): 100 | Plant response rating, Soybean (soybean [19]; [25]): 100 | Plant response rating, Sedge, Umbrella (Flood) (sedge, umbrella): 98 | Plant response rating, Wheat (wheat [20]): 90 | Wheat plant response rating (wheat [20]): 30 | Plant response rating, Rice (Flood) (rice): 20 | pest or weed control at 125 g/ha (blackgrass [21]; Alopecurus myosuroides, post-emergence, 240 h, 125 g ai/ha, postemergence, 0 to 100 scale (0 no effect, 100 complete control), read-out: Plant response rating, Blackgrass): 90% | pest or weed control at 500 g/ha (blackgrass [21]; Alopecurus myosuroides, post-emergence, 240 h, Postemergence, 500 g ai/ha, visual 0 to 100 scale (0 no effect, 100 complete control), read-out: Plant response rating, Blackgrass): 100% | Plant response rating, Foxtail, Green (green foxtail [22]; [24]): 90 | Plant response rating, Foxtail, Green (green foxtail [22]; [25]): 90 | Plant response rating, Ryegrass, Italian (ryegrass, Italian [23]): 100 | Ryegrass, Italian plant response rating (ryegrass, Italian [23]): 90

COc1cc(C(=O)N2C[C@H](C)Oc3c(Cl)cccc32)cc(-n2cnc(C3CCC3)n2)c1 [Compound 214]
Plant response rating, Kochia (kochia [1]): 100 | Kochia plant response rating (kochia [1]): 90 | Plant response rating, Kochia (kochia [2]; [24]): 70 | Plant response rating, Kochia (kochia [2]; [25]): 100 | Plant response rating, Ducksalad (Flood) (ducksalad): 70 | Plant response rating, Barnyardgrass (barnyardgrass [3]): 100 | Barnyardgrass plant response rating (barnyardgrass [3]): 50 | Plant response rating, Barnyardgrass (Flood) (barnyardgrass [4]): 0 | Plant response rating, Pigweed, Palmer (pigweed, palmer [5]; [24]): 100 | Plant response rating, Pigweed, Palmer (pigweed, palmer [5]; [25]): 100 | Plant response rating, Blackgrass (blackgrass [6]): 70 | Blackgrass plant response rating (blackgrass [6]): 20 | Plant response rating, Ragweed (ragweed [7]; [24]): 40 | Plant response rating, Ragweed (ragweed [7]; [25]): 40 | Plant response rating, Barnyardgrass (barnyardgrass [8]; [24]): 20 | Plant response rating, Barnyardgrass (barnyardgrass [8]; [25]): 20 | Plant response rating, Oat, Wild (oat, wild [9]; [24]): 20 | Plant response rating, Oat, Wild (oat, wild [9]; [25]): 20 | Plant response rating, Corn (corn [10]): 20 | Corn plant response rating (corn [10]): 10 | Plant response rating, Soybean (soybean [11]): 80 | Soybean plant response rating (soybean [11]): 30 | Plant response rating, Horseweed (horseweed; [24]): 0 | Plant response rating, Horseweed (horseweed; [25]): 40 | Plant response rating, Ragweed (ragweed [12]): 0 | Ragweed plant response rating (ragweed [12]): 10 | Plant response rating, Foxtail, Green (green foxtail [13]): 100 | Foxtail, Green plant response rating (green foxtail [13]): 100 | Plant response rating, Pigweed, Palmer (pigweed, palmer [14]): 100 | Pigweed, Palmer plant response rating (pigweed, palmer [14]): 100 | Plant response rating, Corn (corn [15]; [24]): 60 | Plant response rating, Corn (corn [15]; [25]): 70 | Plant response rating, Ryegrass, Italian (ryegrass, Italian [16]; [24]): 20 | Plant response rating, Ryegrass, Italian (ryegrass, Italian [16]; [25]): 40 | Plant response rating, Oat, Wild (oat, wild [17]): 80 | Oat, Wild plant response rating (oat, wild [17]): 0 | Plant response rating, Wheat (wheat [18]; [24]): 20 | Plant response rating, Wheat (wheat [18]; [25]): 30 | Plant response rating, Soybean (soybean [19]; [24]): 100 | Plant response rating, Soybean (soybean [19]; [25]): 100 | Plant response rating, Sedge, Umbrella (Flood) (sedge, umbrella): 90 | Plant response rating, Wheat (wheat [20]): 30 | Wheat plant response rating (wheat [20]): 10 | Plant response rating, Rice (Flood) (rice): 0 | Plant response rating, Blackgrass (blackgrass [21]; [24]): 0 | Plant response rating, Blackgrass (blackgrass [21]; [25]): 80 | Plant response rating, Foxtail, Green (green foxtail [22]; [24]): 30 | Plant response rating, Foxtail, Green (green foxtail [22]; [25]): 80 | Plant response rating, Ryegrass, Italian (ryegrass, Italian [23]): 90 | Ryegrass, Italian plant response rating (ryegrass, Italian [23]): 80
